The experiment addresses T1, recombinant autotaxin (Homo sapiens, UniProt Q13822).
T1 construct: made in house; host or cells: Hi5 insect cells (baculovirus)
The experiment in a line: Autotaxin assay (Amplex Red, LPC substrate). It counts as biochemical. Particulars: 75 μM LPC, Amplex Red fluorescence, ten 1:3 dilutions starting at 30 μM. Put shortly: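 Baculovirus (Hi5)-expressed autotaxin (16 ng) was preincubated with compound 30 min at 22° C., then reacted with 75 μM final egg LPC for 90 min at 37° C.; choline released was coupled via choline oxidase/peroxidase to Amplex Red, fluorescence read kinetically (ex 485/em 612 nm). IC50 from 10-point 1:3 dilutions from 30 μM, duplicates, normalized to 500 μM C14 LPA as 0%.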

Consider `CNC(=O)C1CCN(c2nccc3nc(NCc4ccccc4Cl)ncc23)CC1` [Compound 139, 1-[2-(2-Chloro-benzylamino)-pyrido[4,3-d]pyrimidin-5-yl]-piperidine-4-carboxylic acid methylamide], for which the IC50 (commonly the concentration at which inhibition is half-maximal) was less than 30 µM. Take `Clc1ccccc1CNc1ncc2c(N3CCCC3)nccc2n1` [Compound 8, (2-Chloro-benzyl)-(5-pyrrolidin-1-yl-pyrido[4,3-d]pyrimidin-2-yl)-amine]: the IC50 was less than 5 µM. For the compound `CCOC(=O)CCNC(=O)C1CCCN(c2nccc3nc(NCc4ccccc4Cl)ncc23)C1` (centres unmarked) [Compound 92, 3-({1-[2-(2-Chloro-benzylamino)-pyrido[4,3-d]pyrimidin-5-yl]-piperidine-3-carbonyl}-amino)-propionic acid ethyl ester], the IC50 was less than 10 µM. `Fc1ccc(N2CCN(c3nccc4nc(NCc5ccccc5Cl)ncc34)CC2)cc1` [Compound 106, (2-Chloro-benzyl)-{5-[4-(4-fluoro-phenyl)-piperazin-1-yl]-pyrido[4,3-d]pyrimidin-2-yl}-amine]: the IC50 is less than 5 µM. The value for `Fc1ccc(CNc2ncc3c(Nc4ccc5c(c4)OCO5)nccc3n2)cc1` [Compound 26, N5-Benzo[1,3]dioxol-5-yl-N2-(4-fluoro-benzyl)-pyrido[4,3-d]pyrimidine-2,5-diamine] was less than 30 µM; that for `O=C(O)CN1CCN(c2nccc3nc(NCc4ccccc4Cl)ncc23)CC1` [Compound 145, {4-[2-(2-Chloro-benzylamino)-pyrido[4,3-d]pyrimidin-5-yl]-piperazin-1-yl}-acetic acid] was less than 10 µM; that for `O=C(O)C1CCN(c2nccc3nc(NCc4ccccc4Cl)ncc23)CC1` [Compound 127, 1-[2-(2-Chloro-benzylamino)-pyrido[4,3-d]pyrimidin-5-yl]-piperidine-4-carboxylic acid] was less than 5 µM. Take `Clc1ccccc1CNc1ncc2c(NCCc3cccnc3)nccc2n1` [Compound 147, N2-(2-Chloro-benzyl)-N5-(2-pyridin-3-yl-ethyl)-pyrido[4,3-d]pyrimidine-2,5-diamine]: the IC50 was less than 30 µM. The value for `O=C(c1ccco1)N1CCN(c2nccc3nc(NCc4ccccc4Cl)ncc23)CC1` [Compound 113, {4-[2-(2-Chloro-benzylamino)-pyrido[4,3-d]pyrimidin-5-yl]-piperazin-1-yl}-furan-2-yl-methanone] was less than 5 µM; that for `O=C(Cc1ccncc1)N1CCN(c2nccc3nc(NCc4ccccc4Cl)ncc23)CC1` [Compound 138, 1-{4-[2-(2-Chloro-benzylamino)-pyrido[4,3-d]pyrimidin-5-yl]-piperazin-1-yl}-2-pyridin-4-yl-ethanone] was less than 30 µM; that for `O=C(N1CCOCC1)N1CCN(c2nccc3nc(NCc4ccccc4Cl)ncc23)CC1` [Compound 116, {4-[2-(2-Chloro-benzylamino)-pyrido[4,3-d]pyrimidin-5-yl]-piperazin-1-yl}-morpholin-4-yl-methanone] was less than 5 µM. As for `CCN(CC)C(=O)C1CCN(c2nccc3nc(NCc4ccccc4OC)ncc23)CC1` [Compound 103, 1-[2-(2-Methoxy-benzylamino)-pyrido[4,3-d]pyrimidin-5-yl]-piperidine-4-carboxylic acid diethylamide], the IC50 was less than 10 µM. The value for `Fc1ccc(CNc2ncc3c(Nc4ccc(F)cc4)nccc3n2)cc1` [Compound 21, N2-(4-Fluoro-benzyl)-N5-(4-fluoro-phenyl)-pyrido[4,3-d]pyrimidine-2,5-diamine] was less than 30 µM. As for `O=C(NCc1ccco1)C1CCN(c2nccc3nc(NCc4ccccc4)ncc23)CC1` [Compound 60, 1-(2-Benzylamino-pyrido[4,3-d]pyrimidin-5-yl)-piperidine-4-carboxylic acid (furan-2-ylmethyl)-amide], the figure is less than 30 µM; as for `O=C(C1CCCN(c2nccc3nc(NCc4ccc(Cl)cc4)ncc23)C1)N1CCN(c2ccccn2)CC1` (centres unmarked) [Compound 94, {1-[2-(4-Chloro-benzylamino)-pyrido[4,3-d]pyrimidin-5-yl]-piperidin-3-yl}-(4-pyridin-2-yl-piperazin-1-yl)-methanone], less than 10 µM. As for `Cc1cc(NC(=O)C2CCCN(c3nccc4nc(NCc5ccccc5Cl)ncc34)C2)no1` (centres unmarked) [Compound 87, 1-[2-(2-Chloro-benzylamino)-pyrido[4,3-d]pyrimidin-5-yl]-piperidine-3-carboxylic acid (5-methyl-isoxazol-3-yl)-amide], the figure is less than 30 µM.

For `Cc1cc(F)ccc1Nc1nccc2nc(NCc3ccccc3)ncc12` [Compound 7, N2-Benzyl-N5-(4-fluoro-2-methyl-phenyl)-pyrido[4,3-d]pyrimidine-2,5-diamine], the IC50 was less than 30 µM.

In the case of `Clc1ccccc1CNc1ncc2c(NCCc3ccncc3)nccc2n1` [Compound 148, N2-(2-Chloro-benzyl)-N5-(2-pyridin-4-yl-ethyl)-pyrido[4,3-d]pyrimidine-2,5-diamine], the IC50 was less than 30 µM. For the compound `CCN1CCN(C(=O)C2CCCN(c3nccc4nc(NCc5ccccc5Cl)ncc34)C2)CC1` (centres unmarked) [Compound 89, {1-[2-(2-Chloro-benzylamino)-pyrido[4,3-d]pyrimidin-5-yl]-piperidin-3-yl}-(4-ethyl-piperazin-1-yl)-methanone], the half-maximal inhibitory concentration (IC50) was less than 5 µM. On to `Fc1ccc(Nc2nccc3nc(NCc4ccc(Cl)cc4)ncc23)c(F)c1` [Compound 45, N2-(4-Chloro-benzyl)-N5-(2,4-difluoro-phenyl)-pyrido[4,3-d]pyrimidine-2,5-diamine], for which the IC50 was less than 30 µM. `COCCOCC(=O)N1CCN(c2nccc3nc(NCc4ccccc4Cl)ncc23)CC1` [Compound 136, 1-{4-[2-(2-Chloro-benzylamino)-pyrido[4,3-d]pyrimidin-5-yl]-piperazin-1-yl}-2-(2-methoxy-ethoxy)-ethanone]: the IC50 was less than 30 µM. The value for `N#CCC(=O)N1CCN(c2nccc3nc(NCc4ccccc4Cl)ncc23)CC1` [Compound 128, 3-{4-[2-(2-Chloro-benzylamino)-pyrido[4,3-d]pyrimidin-5-yl]-piperazin-1-yl}-3-oxo-propionitrile] was less than 30 µM; that for `COc1ccc(Nc2nccc3nc(NCc4ccccc4OC)ncc23)cc1` [Compound 35, N2-(2-Methoxy-benzyl)-N5-(4-methoxy-phenyl)-pyrido[4,3-d]pyrimidine-2,5-diamine] was less than 30 µM; that for `CCN(CC)CCCNC(=O)C1CCN(c2nccc3nc(NCc4ccccc4Cl)ncc23)CC1` [Compound 63, 1-[2-(2-Chloro-benzylamino)-pyrido[4,3-d]pyrimidin-5-yl]-piperidine-4-carboxylic acid (3-diethylamino-propyl)-amide] was less than 10 µM. As for `COCCCNC(=O)C1CCCN(c2nccc3nc(NCc4ccccc4Cl)ncc23)C1` (centres unmarked) [Compound 90, 1-[2-(2-Chloro-benzylamino)-pyrido[4,3-d]pyrimidin-5-yl]-piperidine-3-carboxylic acid (3-methoxy-propyl)-amide], the figure is less than 30 µM. For the compound `CN(C)CCNC(=O)C1CCN(c2nccc3nc(NCc4ccccc4Cl)ncc23)CC1` [Compound 64, 1-[2-(2-Chloro-benzylamino)-pyrido[4,3-d]pyrimidin-5-yl]-piperidine-4-carboxylic acid (2-dimethylamino-ethyl)-amide], the IC50 is less than 10 µM.

The values are drawn from US8530650B2, “2, 5-diamino-substituted pyrido [4, 3-D] pyrimidines as autotaxin inhibitors against cancer” (MERCK PATENT GmbH, priority 2008, dated 2013).
